Data on three compounds can be found in patent US12534469B2 (CHILDREN'S HOSPITAL MEDICAL CENTER, priority 2020, dated 2026).

Read-outs that look alike come from different tables or passages of the source.

One assay concerns the target T1, FLT3 D835H (Homo sapiens, UniProt P36888, D835H).
T1 construct: purchased DiscoverX (KINOMEscan); host or cells: E. coli (T7 phage) or HEK-293
T1 sequence (P36888 27-993 D835H): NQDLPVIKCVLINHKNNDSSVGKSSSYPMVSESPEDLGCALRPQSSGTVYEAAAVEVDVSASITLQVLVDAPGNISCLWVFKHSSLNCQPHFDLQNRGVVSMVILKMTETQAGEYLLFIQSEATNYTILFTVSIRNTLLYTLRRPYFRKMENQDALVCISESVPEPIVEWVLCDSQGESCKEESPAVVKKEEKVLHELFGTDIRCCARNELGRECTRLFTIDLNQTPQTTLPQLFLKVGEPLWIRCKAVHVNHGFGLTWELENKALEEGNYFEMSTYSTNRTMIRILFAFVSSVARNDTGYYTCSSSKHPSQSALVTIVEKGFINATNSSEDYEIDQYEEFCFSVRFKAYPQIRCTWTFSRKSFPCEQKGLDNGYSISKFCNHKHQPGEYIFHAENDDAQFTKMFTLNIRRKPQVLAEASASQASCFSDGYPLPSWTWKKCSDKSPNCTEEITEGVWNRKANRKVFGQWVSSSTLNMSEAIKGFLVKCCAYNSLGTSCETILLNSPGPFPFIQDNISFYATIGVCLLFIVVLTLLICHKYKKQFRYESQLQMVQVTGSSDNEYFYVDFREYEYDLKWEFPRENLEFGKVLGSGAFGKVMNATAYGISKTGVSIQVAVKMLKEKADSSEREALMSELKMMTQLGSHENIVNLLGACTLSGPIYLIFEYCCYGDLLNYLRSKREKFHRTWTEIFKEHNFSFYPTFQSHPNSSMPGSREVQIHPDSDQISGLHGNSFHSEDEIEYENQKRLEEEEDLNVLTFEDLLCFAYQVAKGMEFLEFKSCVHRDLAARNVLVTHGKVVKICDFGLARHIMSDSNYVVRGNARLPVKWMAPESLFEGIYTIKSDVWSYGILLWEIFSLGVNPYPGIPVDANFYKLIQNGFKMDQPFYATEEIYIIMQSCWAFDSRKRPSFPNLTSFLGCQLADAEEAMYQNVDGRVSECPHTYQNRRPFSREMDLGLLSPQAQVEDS
In words: DiscoverX KINOMEscan competition binding assay, FLT3 D835H. The text has this:
(§1) Kinase binding data were obtained for various exemplary compounds prepared according to Examples 1-25 using the DiscoverX KINOMEscan® active site-directed competition binding site-directed assay protocol described below. […] As a result, the data report thermodynamic interaction affinities (Kd values), rather than IC50 values that are dependent on ATP concentrations. The assay uses a DNA-tagged version of the protein kinase, and an immobilized ligand bound to a solid support. Compounds that directly or indirectly prevent kinase binding to the immobilized ligand reduce the amount of kinase captured on the solid support, which is detected using an ultra-sensitive qPCR method. Affinity constants reported from the assay have been reported to be independent of the immobilized ligand used that is coupled to the solid support (See supplemental information in Fabian, M. A. et. al., (2005) Nat. Biotechnol. 23, 329-336; Wodicka, L. M. et. al., (2010) Chem. Biol. 17, 1241-1249.)
(§2) Kinase-tagged T7 phage strains were prepared in an E. coli host derived from the BL21 strain. E. coli were grown to log-phase and infected with T7 phage and incubated with shaking at 32° C. until lysis. The lysates were centrifuged and filtered to remove cell debris. The remaining kinases were produced in HEK-293 cells and subsequently tagged with DNA for qPCR detection. […] The liganded beads were blocked with excess biotin and washed with blocking buffer (SeaBlock (Pierce), 1% BSA, 0.05% Tween 20, 1 mM DTT) to remove unbound ligand and to reduce non-specific binding. […] Test compounds were prepared as 111× stocks in 100% DMSO. Kds were determined using an 11-point 3-fold compound dilution series with three DMSO control points. […] The compounds were then diluted directly into the assays such that the final concentration of DMSO was 0.9%. All reactions were performed in polypropylene 384-well plates. Each was a final volume of 0.02 mL. […] The kinase concentration in the eluates was measured by qPCR.
(§3) Binding constants (Kds) were calculated with a standard dose-response curve using the Hill equation. […]

A further assay concerns the target T2, FLT3 ITD (Homo sapiens, UniProt P36888, ITD).
T2 sequence (P36888 564-993): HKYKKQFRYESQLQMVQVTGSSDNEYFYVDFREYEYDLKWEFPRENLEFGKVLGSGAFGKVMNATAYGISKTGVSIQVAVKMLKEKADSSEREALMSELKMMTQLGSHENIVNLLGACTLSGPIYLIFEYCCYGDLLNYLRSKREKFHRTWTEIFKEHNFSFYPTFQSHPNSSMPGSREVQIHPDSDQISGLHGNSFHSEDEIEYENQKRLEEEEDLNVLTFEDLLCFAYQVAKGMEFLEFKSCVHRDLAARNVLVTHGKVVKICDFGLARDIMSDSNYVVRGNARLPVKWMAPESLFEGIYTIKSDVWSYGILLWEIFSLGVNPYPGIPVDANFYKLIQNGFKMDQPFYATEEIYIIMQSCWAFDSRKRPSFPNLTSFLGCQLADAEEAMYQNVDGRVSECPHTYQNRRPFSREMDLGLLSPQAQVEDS
Put plainly: DiscoverX KINOMEscan competition binding assay, FLT3 ITD.
Excerpt: as §1, §2, §3

What is called Kd is the equilibrium constant for the complex coming apart. For the compound `COc1cc2ncc(-c3cccc(N[C@H]4CNC[C@@H]4F)n3)n2nc1C1CC1` [Compound 96, 6-(6-cyclopropyl-7-methoxyimidazo[1,2-b]pyridazin-3-yl)-N-((3S,4S)-4-fluoropyrrolidin-3-yl)pyridin-2-amine], the dissociation constant (Kd) on FLT3 D835H was found to be 230 pM; at FLT3 ITD it was 1000 pM.

Regarding `COc1cc2ncc(-c3cccc(N[C@@H]4CCNC4)n3)n2nc1C1CC1` [Compound 97, (R)-6-(6-cyclopropyl-7-methoxyimidazo[1,2-b]pyridazin-3-yl)-N-(pyrrolidin-3-yl)pyridin-2-amine], the dissociation constant (Kd) is 180 pM on FLT3 D835H and 190 pM on FLT3 ITD (read-out: FLT3 ITD Kd).

As for `COc1cc2ncc(-c3cccc(N[C@H]4CNCC[C@@H]4F)n3)n2nc1C1CC1` [Compound 102, 6-(6-cyclopropyl-7-methoxyimidazo[1,2-b]pyridazin-3-yl)-N-((3S,4S)-4-fluoropiperidin-3-yl)pyridin-2-amine], the dissociation constant (Kd) on FLT3 D835H came to 210 pM; at FLT3 ITD (read-out: FLT3 ITD Kd), 540 pM.
